Experiment in all cases: inhibition of tumour cell growth, NCI panel, 48 h
For assay [1], the system named is XF498.
Assay [2] deals with DMS-114.
In assay [3] the test system is HOP-18.
Assay [4] relates to DMS-273.
Assay [5] has as its system LXFL 529.
In assay [6] the test system is RXF 631.
Assay [7] has as its system SNB-78.
For assay [8], the system named is M19-MEL.
Assay [9] relates to DLD-1.

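Five concentrations, 48 hours, 96-well plates. GI50 marks 50% less growth.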 Active and inactive are the calls of the source. Cut-off read from the data, not from the text of the source: active = GI50 up to about 1.1 µM and inactive = higher. Some results are limits rather than exact numbers.

With `N#C/N=C(\N)NCCO`, the GI50 in assay [1] is > 100 µM (inactive); in assay [2], 75.3 µM (inactive); in assay [3], > 100 µM (inactive); in assay [4], > 100 µM (inactive); in assay [5], > 100 µM (inactive); in assay [6], > 100 µM (inactive). The GI50 was > 100 µM (inactive) in assay [7], 40.3 µM (inactive) in assay [8] and > 100 µM (inactive) in assay [9].
Turning to `O=C1CCC(=O)C(C(=O)CCC(=O)Nc2ccc(Cl)cc2)C1` (stereo not drawn), the GI50 in [1], in assay [2], in assay [3], in assay [4], in assay [5] and in assay [6] was > 100 µM (inactive) each time. In addition, the GI50 in [7] and in assay [9] was > 100 µM (inactive) each time.
As to `CCOC(=O)c1cnc2sc3ccc4ccccc4c3n2c1=O`, the GI50 in assay [2] is 71.6 µM (inactive); in assay [3] it was > 100 µM (inactive); in [4], 95.5 µM (inactive); in assay [5], 55.2 µM (inactive); in assay [6], 64.6 µM (inactive); in [7], > 100 µM (inactive). In addition, the GI50 in assay [8] and in [9] was > 100 µM (inactive) each time.
Regarding `Nc1ncnc2c(C3OC(CO)C(O)C3O)scc12` (stereo not drawn), the GI50 was 0.0282 µM (active) in assay [1]; 0.0292 µM (active) in assay [2]; < 0.01 µM (active) in assay [3]; 0.00377 µM (active) in [4]; 0.129 µM (active) in assay [5]; 4.31 µM (inactive) in assay [7]. Also, the results for the GI50 in assay [8] and in assay [9] were 0.369 µM (active) and 0.00212 µM (active), respectively.
As for `C/N=c1\ss/c(=N\C(=S)N(C)C)n1C1CCCCC1`, the GI50 in assay [1] was > 31.6 µM (inactive); in assay [2], > 31.6 µM (inactive); in [3], > 31.6 µM (inactive); in assay [4], > 31.6 µM (inactive); in [5], > 31.6 µM (inactive); in [6], > 100 µM (inactive). Further, the figures for the GI50 in assay [7], in [8] and in assay [9] were > 31.6 µM (inactive), > 31.6 µM (inactive) and > 100 µM (inactive), respectively.
As to `Cc1ccc(OC(=O)N2C/C(=C\c3ccccc3)C(=O)/C(=C/c3ccccc3)C2)cc1`, the GI50 in assay [1] is 26.2 µM (inactive); in assay [2], 15.1 µM (inactive); in assay [3], > 46.2 µM (inactive); in [4] it was 4.83 µM (inactive); in assay [5], 9.98 µM (inactive); in assay [6], 40.7 µM (inactive). Moreover, the results for the GI50 in assay [7], in assay [8] and in assay [9] were 28.4 µM (inactive), 5.53 µM (inactive) and 6.84 µM (inactive), respectively.
As to `c1ccc(C2=NOC3(c4ccccc4)SC4CCCCC4CN23)cc1` (stereo not drawn), the GI50 was 52.4 µM (inactive) in [1]; 15.6 µM (inactive) in [2]; 26.9 µM (inactive) in [3]; 32.6 µM (inactive) in assay [4]; 13.2 µM (inactive) in [5]; 34 µM (inactive) in assay [7]. Moreover, the GI50 is 30.5 µM (inactive) in [8] and 40.5 µM (inactive) in assay [9].
Regarding `Cc1c(C(=O)CC(=O)C(=O)NC2C3CC4CC(C3)CC2C4)[n+]([O-])c2ccccc2[n+]1[O-]` (stereo not drawn), the GI50 is 93.5 µM (inactive) in assay [1]; > 100 µM (inactive) in [2]; 24.4 µM (inactive) in [3]; > 100 µM (inactive) in assay [4]; > 100 µM (inactive) in assay [5]; > 100 µM (inactive) in [6]. Further, the GI50 is > 100 µM (inactive) in [7] and 90.2 µM (inactive) in assay [8].
Turning to `O=C(Nc1cc(Cl)ccc1Cl)C(=O)C(c1cnc2ccccc2n1)[N+](=O)[O-]` (stereo not drawn), the GI50 in [1], in assay [2], in assay [3], in assay [5], in assay [6] and in [7] was > 100 µM (inactive) throughout. For the same compound, the GI50 in assay [8] and in [9] was > 100 µM (inactive) each time.
As for `CC1=CC(=O)N2[C@H](OC[C@@H]2C(C)C)O1`, the GI50 in assay [1], in [2], in [3], in assay [5], in assay [6] and in [8] was > 100 µM (inactive) throughout. Besides, in assay [9], the GI50 was > 100 µM (inactive).
In the case of `CC(C)(c1ccc(OC#N)cc1)c1ccc(OC#N)cc1`, the GI50 was > 41.5 µM (inactive) in assay [2]; > 100 µM (inactive) in [3]; > 100 µM (inactive) in [5]; > 100 µM (inactive) in [6]; > 100 µM (inactive) in assay [7]; > 82.6 µM (inactive) in [8]. In addition, in assay [9], the GI50 is > 56.8 µM (inactive).
With `Cc1c(C2Cc3ccccc3N2C(=O)/C=C\C(=O)O)c2ccccc2n1C` (stereo not drawn), the GI50 in assay [1] was 17.3 µM (inactive); in assay [2], 18.7 µM (inactive); in [4] it was 34.8 µM (inactive); in [5], 17.3 µM (inactive); in assay [6], > 100 µM (inactive); in [7], 35.5 µM (inactive). Further, the GI50 in assay [8] is 19.7 µM (inactive); in assay [9] it was 35.9 µM (inactive).
As to `O=[N+]([O-])c1ccc2nc(/C(=N\Nc3ccccc3)C(O)c3ccc4c(c3)OCO4)c(O)nc2c1` (stereo not drawn), the GI50 in assay [2] is 37.4 µM (inactive); in assay [4], 37.7 µM (inactive); in assay [5], 50.7 µM (inactive); in assay [6], > 100 µM (inactive); in assay [7], > 100 µM (inactive); in assay [8] it was > 100 µM (inactive). In assay [9], the GI50 was > 100 µM (inactive).
As for `CCOC(=O)c1nc2ccc([N+](=O)[O-])cc2c2c1CCO2`, the GI50 in assay [1] was > 100 µM (inactive); in assay [2], > 100 µM (inactive); in assay [3], 71 µM (inactive); in assay [4] it was > 100 µM (inactive); in assay [5], > 100 µM (inactive); in [6] it was > 100 µM (inactive). In addition, the GI50 in [7], in assay [8] and in assay [9] was > 100 µM (inactive) in each case.
For `Oc1cc(Cl)ncn1`, the GI50 in assay [2], in [3], in [4], in [5], in assay [6] and in assay [7] was > 100 µM (inactive) in each case. The GI50 in [8] and in assay [9] was > 100 µM (inactive) in each case.
On to `Cc1ccc(N2C(=O)/C(=C/c3ccc(N(CCC#N)CCC#N)cc3)N=C2COc2ccc(Cl)cc2Cl)cc1`, for which the GI50 in assay [1] was > 100 µM (inactive); in [2] it was > 100 µM (inactive); in [3], 33.8 µM (inactive); in [5] it was > 100 µM (inactive); in assay [6], > 100 µM (inactive); in assay [7] it was > 100 µM (inactive). Also, the GI50 in [9] was > 100 µM (inactive).

(Values after ChEMBL document CHEMBL1201862, “PubChem BioAssay data set” (2004).)
